According to PubChem BioAssay AID2060488 (Molecular Pharmacology Branch, DTP, NCI, 2025):

Tested on: 966289-007-R4-J1-PDC complex spheroid viability
Experiment: Anticancer human tumor 966289-007-R4-J1-PDC patient-derived pancreatic adenocarcinoma cell line growth inhibition [GQUAD]
Conditions: for IC50: curve of first compound; for viability, T/C: stronger effect = lower value
Procedure, shortened: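 Tumor cells were grown as complex spheroids with HUVEC endothelial cells and mesenchymal stem cells as stroma. G-quadruplex stabilizers were combined with targeted agents over half-log dilutions from near the clinical Cmax, or from 10 microM.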
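Also: spheroids exposed to the agents for seven days before readout.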
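For viability, T/C in this document: percent viability relative to DMSO vehicle control wells taken as 100%.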

SMILES: CC1COCCN1c1cc(C2(O)CC3CCC(C2)O3)c2cnn(-c3ccn[nH]3)c2n1 (configuration not stated) + Cc1cnc(CNC(=O)c2c(=O)c3ccc(N4CCCN(C)CC4)nc3n3c2sc2ccccc23)cn1
- IC50 (second compound 0.0316 µM): < 31.6 nM
- IC50 (second compound 0.1 µM): < 31.6 nM
- IC50 (second compound 0.316 µM): < 31.6 nM
- IC50 (second compound 1 µM): < 31.6 nM
- IC50 (second compound 3.16 µM): < 31.6 nM
- IC50 (second compound 10 µM): < 31.6 nM
- viability, T/C (second compound 0.0316 µM, first compound 0.0316 µM): 17.9%
- viability, T/C (second compound 0.0316 µM, first compound 0.1 µM): 6.32%
- viability, T/C (second compound 0.0316 µM, first compound 0.316 µM): 6.87%
- viability, T/C (second compound 0.0316 µM, first compound 1 µM): 4.01%
- viability, T/C (second compound 0.0316 µM, first compound 3.16 µM): 4.28%
- viability, T/C (second compound 0.0316 µM, first compound 10 µM): 3.82%
- viability, T/C (second compound 0.1 µM, first compound 0.0316 µM): 8.59%
- viability, T/C (second compound 0.1 µM, first compound 0.1 µM): 4.79%
- viability, T/C (second compound 0.1 µM, first compound 0.316 µM): 5.61%
- viability, T/C (second compound 0.1 µM, first compound 1 µM): 4.59%
- viability, T/C (second compound 0.1 µM, first compound 3.16 µM): 3.77%
- viability, T/C (second compound 0.1 µM, first compound 10 µM): 3.82%
- viability, T/C (second compound 0.316 µM, first compound 0.0316 µM): 6.96%
- viability, T/C (second compound 0.316 µM, first compound 0.1 µM): 6.64%
- viability, T/C (second compound 0.316 µM, first compound 0.316 µM): 7.05%
- viability, T/C (second compound 0.316 µM, first compound 1 µM): 5.35%
- viability, T/C (second compound 0.316 µM, first compound 3.16 µM): 4.24%
- viability, T/C (second compound 0.316 µM, first compound 10 µM): 3.79%
- viability, T/C (second compound 1 µM, first compound 0.0316 µM): 5.69%
- viability, T/C (second compound 1 µM, first compound 0.1 µM): 6.03%
- viability, T/C (second compound 1 µM, first compound 0.316 µM): 7.24%
- viability, T/C (second compound 1 µM, first compound 1 µM): 5.15%
- viability, T/C (second compound 1 µM, first compound 3.16 µM): 5.42%
- viability, T/C (second compound 1 µM, first compound 10 µM): 4.18%
- viability, T/C (second compound 3.16 µM, first compound 0.0316 µM): 4.9%
- viability, T/C (second compound 3.16 µM, first compound 0.1 µM): 5.03%
- viability, T/C (second compound 3.16 µM, first compound 0.316 µM): 5.23%
- viability, T/C (second compound 3.16 µM, first compound 1 µM): 5.64%
- viability, T/C (second compound 3.16 µM, first compound 3.16 µM): 5.02%
- viability, T/C (second compound 3.16 µM, first compound 10 µM): 3.38%
- viability, T/C (second compound 10 µM, first compound 0.0316 µM): 0.04%
- viability, T/C (second compound 10 µM, first compound 0.1 µM): 0.08%
- viability, T/C (second compound 10 µM, first compound 0.316 µM): 0.11%
- viability, T/C (second compound 10 µM, first compound 1 µM): 0.07%
- viability, T/C (second compound 10 µM, first compound 3.16 µM): 0.15%
- viability, T/C (second compound 10 µM, first compound 10 µM): 0.14%
